Earlier results on one molecule are cited in paper PMC3807987 (Pharmacognosy Research, 2013).

For this data set, the system named is CYP2D6.

Where two headings read alike, the source gives them in different places.

Consider `CN[C@H]1CC[C@@H](c2ccc(Cl)c(Cl)c2)c2ccccc21` [Sertraline], for which the CYP2D6 inhibition strength result by setting is: (dose of 50 mg) “mild inhibitor”; (dose of 200 mg) “potent inhibitor”.
